Where a name gives a salt, the structure may show the parent alone.
biological target: T1, h5-HT5A receptor (Homo sapiens, UniProt P47898); assay: [3H]5-CT binding assay h5-HT5A; details: membranes from HEK293 cells expressing h5-HT5A, 2.5 nM [3H]5-CT; read-out: Binding affinity 5-HT5A (Ki)
T1 construct: expressed in transfected cells; host or cells: HEK293
Summary of the method: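 Membranes from HEK293 cells stably expressing h5-HT5A incubated with 2.5 nM [3H]5-CT and compound in 100 mM Tris-HCl pH 7.7, 1 mM EDTA, 75 min at 30° C. Nonspecific binding with 10 μM methiothepine; filtration and scintillation counting give Ki or IC50.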

T1 sequence (P47898 whole entry): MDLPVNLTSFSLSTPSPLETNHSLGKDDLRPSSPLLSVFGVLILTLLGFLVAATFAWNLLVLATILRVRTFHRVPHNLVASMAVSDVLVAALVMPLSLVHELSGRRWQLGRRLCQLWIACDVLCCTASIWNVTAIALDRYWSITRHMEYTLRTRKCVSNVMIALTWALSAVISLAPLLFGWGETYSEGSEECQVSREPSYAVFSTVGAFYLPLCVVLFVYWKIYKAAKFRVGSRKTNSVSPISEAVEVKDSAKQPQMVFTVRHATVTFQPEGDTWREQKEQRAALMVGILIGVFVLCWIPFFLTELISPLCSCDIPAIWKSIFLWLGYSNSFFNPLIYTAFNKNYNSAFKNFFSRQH

Ki [nM] | Compound
< 50 | COc1cccc(OC)c1CNC(=N)Nc1nc(C2CCCN2)cs1 (stereo not drawn) [Example 147, N-(2,6-dimethoxybenzyl)-N′-(4-pyrrolidine-2-yl-1,3-thiazole-2-yl)guanidine hydrochloride]
50 to 500 | COc1cccc(Cl)c1CNC(=N)Nc1nc(-c2ccc(F)cc2)cs1 [Example 136, N-(2-chloro-6-methoxybenzyl)-N′-[4-(4-fluorophenyl)-1,3-thiazole-2-yl]guanidine]
< 50 | COc1cccc(OC)c1CNC(=N)Nc1nc(C)cs1 [Example 32, N-(2,6-dimethoxybenzyl)-N′-(4-methyl-1,3-thiazole-2-yl)guanidine]
< 50 | Methyl-[2-({imino[(2-methoxybenzyl)amino]methyl}amino)-1,3-thiazole-4-yl]acetate [Example 47]
< 50 | COc1cccc(OC)c1CNC(=N)Nc1nc(-c2ccccc2F)cs1 [Example 70, N-(2,6-dimethoxybenzyl)-N′-[4-(2-fluorophenyl)-1,3-thiazole-2-yl]guanidine hydrobromide]
< 50 | COc1cccc(OC)c1CNC(=N)Nc1nc(C)c(C)o1 [Example 174, N-(2,6-dimethoxybenzyl)-N′-(4,5-dimethyl-1,3-oxazole-2-yl)guanidine acetate]
> 500 | COc1cccc(OC)c1CNC(=N)Nc1nc(-c2cccc(C(F)(F)F)c2)cs1 [Example 108, N-(2,6-dimethoxybenzyl)-N′-{4-[3-(trifluoromethyl)phenyl]-1,3-thiazole-2-yl}guanidine]
< 50 | COc1cccc(OC)c1CNC(=N)Nc1nc2c(s1)CCc1ccccc1-2 [Example 127, N-(4,5-dihydronaphtho[1,2-d][1,3]thiazole-2-yl)-N′-(2,6-dimethoxybenzyl)guanidine]
< 50 | COc1cccc(OC)c1CNC(=N)Nc1nc(-c2ccc(C)cc2)cs1 [Example 57, N-(2,6-dimethoxybenzyl)-N′-[4-(4-methylphenyl)-1,3-thiazole-2-yl]guanidine]
< 50 | COc1cccc(OC)c1CNC(=N)Nc1nc(-c2ccc(-c3ccccc3)cc2)cs1 [Example 74, N-(4-biphenyl-4-yl-1,3-thiazole-2-yl)-N′-(2,6-dimethoxybenzyl)guanidine hydrobromide]
50 to 500 | COc1cccc(F)c1CNC(=N)Nc1nc(-c2ccc(F)cc2)cs1 [Example 141, N-(2-fluoro-6-methoxybenzyl)-N′-[4-(4-fluorophenyl)-1,3-thiazole-2-yl]guanidine]
< 50 | COc1ccccc1CNC(=N)Nc1cc(-c2ccc(Cl)cc2)[nH]n1 [Example 211, N-[5-(4-chlorophenyl)-1H-pyrazole-3-yl]-N′-(2-methoxybenzyl)guanidine]
50 to 500 | COc1cccc(OC)c1CNC(=N)Nc1nc(C2CCCN2C(=O)OC(C)(C)C)cs1 (stereo not drawn) [Example 120, tert-butyl 2-(2-{[[(2,6-dimethoxybenzyl)amino](imino)methyl]amino}-1,3-thiazole-4-yl)pyrrolidine-1-carboxylate]
< 50 | COC(=O)c1sc(NC(=N)NCc2c(OC)cccc2OC)nc1-c1ccc(F)cc1 [Example 160, Methyl-2-{[[(2,6-dimethoxybenzyl)amino](imino)methyl]amino}-4-(4-fluorophenyl)-1,3-thiazole-5-carboxylate]
< 50 | COc1cccc(C)c1CNC(=N)Nc1nc(-c2ccccn2)cs1 [Example 140, N-(2-methoxy-6-methylbenzyl)-N′-(4-pyridine-2-yl-1,3-thiazole-2-yl)guanidine]
50 to 500 | COc1ccccc1CNC(=N)Nc1nnc(C)s1 [Example 178, N-(2-methoxybenzyl)-N′-(5-methyl-1,3,4-thiadiazole-2-yl)guanidine]
< 50 | COc1ccccc1CNC(=N)Nc1cc(-c2ccc(C)cc2)[nH]n1 [Example 206, N-(2-methoxybenzyl)-N′-[5-(4-methylphenyl)-1H-pyrazole-3-yl]guanidine]
50 to 500 | COc1ccccc1CNC(=N)Nc1nc2ccc(C)cc2s1 [Example 168, N-(2-methoxybenzyl)-N′-(6-methyl-1,3-benzothiazole-2-yl)guanidine fumarate]
